The assay has as its target MDM2 (Homo sapiens, UniProt Q00987). The assay can be described thus: MDM2 binding screen: displacement of fluorescent p53 peptide probe FP53 (fluorescence polarization). Conditions: crude macrocycle reactions; for fraction fluorescent probe displaced, Screen: initial screen. Put shortly:
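Macrocycle reaction products at a final 10 µM were tested for displacement of a p53-based fluorescent peptide from human MDM2. Fluorescence anisotropy (ex 485/em 535 nm) was read once per macrocycle at 25 °C.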
On the technique in general: Fluorescence polarisation rises when a labelled molecule tumbles more slowly, as on binding a larger partner.

Numbered stars: 1 amine (or outer) side, 2 acyl side, 3 side chain; on linkers, the order of the positions; unused ones are H or OH. Bridge positions count the residues as written; N and C are the ends. Square brackets hold non-standard residues; d marks the D form. Peptide text beside a SMILES is read from it. * marks the point of attachment. ξ: configuration not given here. Pro(cis-4-NH-(E)-Cinnamoyl) = O=C(/C=C/c1ccccc1)N[C@@H]1CN[C@H](C(=O)O)C1; ξPro(4-NHCO(5-Cl-2-thienyl)) = O=C(NC1CNC(C(=O)O)C1)c1ccc(Cl)s1; ξPro(4ξ-NHCOC6H4-4-Cl) = O=C(NC1CNC(C(=O)O)C1)c1ccc(Cl)cc1; 2Thenoyl(5-Cl) = O=C(c1ccc(Cl)s1)*; Benzoyl(4-Cl) = O=C(c1ccc(Cl)cc1)*; Cysteamide = C(CS[*:3])N[*:1]; Dap = NC[C@H](N)C(=O)O; Mpa = O=C(O)CCS

MDM2, sequence (Q00987 whole entry): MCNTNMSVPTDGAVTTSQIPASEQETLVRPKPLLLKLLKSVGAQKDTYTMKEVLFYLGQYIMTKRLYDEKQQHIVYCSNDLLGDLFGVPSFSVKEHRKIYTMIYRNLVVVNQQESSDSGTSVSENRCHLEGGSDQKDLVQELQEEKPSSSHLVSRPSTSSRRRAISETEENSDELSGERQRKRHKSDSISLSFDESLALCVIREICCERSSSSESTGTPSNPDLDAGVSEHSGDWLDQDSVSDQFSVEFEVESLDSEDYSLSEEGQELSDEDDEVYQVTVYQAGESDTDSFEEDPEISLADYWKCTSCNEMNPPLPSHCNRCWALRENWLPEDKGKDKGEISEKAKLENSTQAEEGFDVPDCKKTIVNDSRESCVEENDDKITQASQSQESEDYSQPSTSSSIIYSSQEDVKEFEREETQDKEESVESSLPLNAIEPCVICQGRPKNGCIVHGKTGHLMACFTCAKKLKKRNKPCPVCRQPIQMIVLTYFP

With `O=C1CCSSCCNC(=O)c2cccc(c2)CNC(=O)C(Cc2ccccc2)NC(=O)C(CNC(=O)c2ccc(Cl)cc2)N1` (stereo not drawn) [X D3 F B5 Acid 25], for the setting “Acid 25”, the “fraction fluorescent probe displaced, Screen” value is reported as 0.0569 and the “fraction fluorescent probe displaced, Replicate” value is recorded as 0.10.
Turning to `O=C1CCSSCCNC(=O)[C@@H]2CCCN2C(=O)[C@H](Cc2c[nH]c3ccccc23)NC(=O)[C@H](CNC(=O)c2ccc(Cl)s2)N1` [X D3 W B1 Acid 14] ([Mpa][Dap](2Thenoyl(5-Cl))WP-Cysteamide; disulfide 1-C), for the setting “Acid 14”, the “fraction fluorescent probe displaced, Screen” value came out at 0.14 and the “fraction fluorescent probe displaced, Replicate” value stood at 0.17.
With `O=C1CCSSCCNC(=O)[C@@H]2CCCN2C(=O)[C@H](Cc2c[nH]c3ccccc23)NC(=O)[C@H](CNC(=O)c2ccc(Cl)cc2)N1` [X D3 W B1 Acid 25] ([Mpa][Dap](Benzoyl(4-Cl))WP-Cysteamide; disulfide 1-C), under “Acid 25”, the “fraction fluorescent probe displaced, Screen” value was 0.12 and the “fraction fluorescent probe displaced, Replicate” value is 0.22.
In the case of `O=C1CCNC(=O)[C@H](Cc2c[nH]c3ccccc23)NC(=O)[C@H](CNC(=O)c2ccc(Cl)s2)NC(=O)CCSSCCN1` [X D3 W B2 Acid 14], for the setting “Acid 14”, the “fraction fluorescent probe displaced, Screen” value is 0.23 and the “fraction fluorescent probe displaced, Replicate” value is recorded as 0.20.
With `O=C1CCNC(=O)[C@H](Cc2c[nH]c3ccccc23)NC(=O)[C@H](CNC(=O)c2ccc(Cl)cc2)NC(=O)CCSSCCN1` [X D3 W B2 Acid 25], where the note is “Acid 25”, the “fraction fluorescent probe displaced, Screen” value is 0.15 and the “fraction fluorescent probe displaced, Replicate” value came out at 0.20.
In the case of `O=C(/C=C/c1ccccc1)NC[C@@H]1NC(=O)CCSSCCNC(=O)CCNC(=O)[C@H](Cc2c[nH]c3ccccc23)NC1=O` [X D3 W B2 Acid 91], under “Acid 91”, the “fraction fluorescent probe displaced, Screen” value is recorded as 0.19 and the “fraction fluorescent probe displaced, Replicate” value was determined as 0.0168.
Consider `O=C1CCSSCCNC(=O)[C@H]2CCCN(C2)C(=O)[C@H](Cc2c[nH]c3ccccc23)NC(=O)[C@H](CNC(=O)c2ccc(Cl)s2)N1` [X D3 W B4 Acid 14], for which, where the note is “Acid 14”, the “fraction fluorescent probe displaced, Screen” value is given as 0.20 and the “fraction fluorescent probe displaced, Replicate” value was found to be 0.0465.
As for `O=C(/C=C/c1ccccc1)NC[C@@H]1NC(=O)CCSSCCNC(=O)[C@H]2CCCN(C2)C(=O)[C@H](Cc2c[nH]c3ccccc23)NC1=O` [X D3 W B4 Acid 91], where the note is “Acid 91”, the “fraction fluorescent probe displaced, Screen” value is listed as 0.14 and the “fraction fluorescent probe displaced, Replicate” value was 0.04.
Take `O=C1CCSSCCNC(=O)c2cccc(c2)CNC(=O)[C@H](Cc2c[nH]c3ccccc23)NC(=O)[C@H](CNC(=O)c2ccc(Cl)s2)N1` [X D3 W B5 Acid 14]: where the note is “Acid 14”, the “fraction fluorescent probe displaced, Screen” value is 0.26 and the “fraction fluorescent probe displaced, Replicate” value is given as 0.22.
Regarding `O=C1CCSSCCNC(=O)c2cccc(c2)CNC(=O)[C@H](Cc2c[nH]c3ccccc23)NC(=O)[C@H](CNC(=O)c2ccc(Cl)cc2)N1` [X D3 W B5 Acid 25], for the setting “Acid 25”, the “fraction fluorescent probe displaced, Screen” value is reported as 0.35 and the “fraction fluorescent probe displaced, Replicate” value is 0.28.
As to `O=C(/C=C/c1ccccc1)NC[C@@H]1NC(=O)CCSSCCNC(=O)c2cccc(c2)CNC(=O)[C@H](Cc2c[nH]c3ccccc23)NC1=O` [X D3 W B5 Acid 91], where the note is “Acid 91”, the “fraction fluorescent probe displaced, Screen” value came out at 0.24 and the “fraction fluorescent probe displaced, Replicate” value was 0.32.
In the case of `O=C(NC1CC2C(=O)N3CCCC3C(=O)NC(Cc3ccccc3)C(=O)NCCSSCCC(=O)N2C1)c1ccc(Cl)cc1` (stereo not drawn) [X D5 B1 F Acid 25] ([Mpa][ξPro(4ξ-NHCOC6H4-4-Cl)]PF-Cysteamide; disulfide 1-C; configuration not given here), for the setting “Acid 25”, the “fraction fluorescent probe displaced, Screen” value is listed as -0.07 and the “fraction fluorescent probe displaced, Replicate” value is recorded as 0.12.
For the compound `O=C(NC1CC2C(=O)N3CCCC3C(=O)NC(Cc3c[nH]c4ccccc34)C(=O)NCCSSCCC(=O)N2C1)c1ccc(Cl)s1` (stereo not drawn) [X D5 B1 W Acid 14] ([Mpa][ξPro(4-NHCO(5-Cl-2-thienyl))]PW-Cysteamide; disulfide 1-C; configuration not given here), under “Acid 14”, the “fraction fluorescent probe displaced, Screen” value came out at 0.17 and the “fraction fluorescent probe displaced, Replicate” value turned out to be 0.0465.
For the compound `O=C(NC1CC2C(=O)N3CCCC3C(=O)NC(Cc3c[nH]c4ccccc34)C(=O)NCCSSCCC(=O)N2C1)c1ccc(Cl)cc1` (stereo not drawn) [X D5 B1 W Acid 25] ([Mpa][ξPro(4ξ-NHCOC6H4-4-Cl)]PW-Cysteamide; disulfide 1-C; configuration not given here), under “Acid 25”, the “fraction fluorescent probe displaced, Screen” value was 0.25 and the “fraction fluorescent probe displaced, Replicate” value stood at 0.15.
Take `O=C(/C=C/c1ccccc1)N[C@H]1C[C@H]2C(=O)N3CCC[C@H]3C(=O)N[C@@H](Cc3c[nH]c4ccccc34)C(=O)NCCSSCCC(=O)N2C1` [X D5 B1 W Acid 91] ([Mpa][Pro(cis-4-NH-(E)-Cinnamoyl)]PW-Cysteamide; disulfide 1-C): for the setting “Acid 91”, the “fraction fluorescent probe displaced, Screen” value came to 0.03 and the “fraction fluorescent probe displaced, Replicate” value is reported as 0.07.
With `O=C1CCNC(=O)C2CC(NC(=O)c3ccc(Cl)s3)CN2C(=O)CCSSCCNC(=O)C(Cc2ccccc2)N1` (stereo not drawn) [X D5 B2 F Acid 14], for the setting “Acid 14”, the “fraction fluorescent probe displaced, Screen” value is reported as -0.0337 and the “fraction fluorescent probe displaced, Replicate” value came to 0.07.
In the case of `O=C1CCNC(=O)C2CC(NC(=O)c3ccc(Cl)cc3)CN2C(=O)CCSSCCNC(=O)C(Cc2c[nH]c3ccccc23)N1` (stereo not drawn) [X D5 B2 W Acid 25], where the note is “Acid 25”, the “fraction fluorescent probe displaced, Screen” value is recorded as 0.15 and the “fraction fluorescent probe displaced, Replicate” value was determined as 0.07.
`O=C(NC1CC2C(=O)N3CCCC(C3)C(=O)NC(Cc3ccccc3)C(=O)NCCSSCCC(=O)N2C1)c1ccc(Cl)s1` (stereo not drawn) [X D5 B4 F Acid 14]: under “Acid 14”, the “fraction fluorescent probe displaced, Screen” value is reported as -0.06 and the “fraction fluorescent probe displaced, Replicate” value is 0.0211.
Regarding `O=C(NC1CC2C(=O)N3CCCC(C3)C(=O)NC(Cc3c[nH]c4ccccc34)C(=O)NCCSSCCC(=O)N2C1)c1ccc(Cl)s1` (stereo not drawn) [X D5 B4 W Acid 14], for the setting “Acid 14”, the “fraction fluorescent probe displaced, Screen” value is listed as 0.11 and the “fraction fluorescent probe displaced, Replicate” value is listed as 0.12.
The matching figures for `O=C1NC(Cc2ccccc2)C(=O)NCCSSCCC(=O)N2CC(NC(=O)c3ccc(Cl)s3)CC2C(=O)NCc2cccc1c2` (stereo not drawn) [X D5 B5 F Acid 14]: -0.0337 and 0.0465.
For `O=C(N[C@H]1C[C@H]2C(=O)NCc3cccc(c3)C(=O)N[C@@H](Cc3ccccc3)C(=O)NCCSSCCC(=O)N2C1)c1ccc(Cl)cc1` [X D5 B5 F Acid 25], for the setting “Acid 25”, the “fraction fluorescent probe displaced, Screen” value is on record as -0.00813 and the “fraction fluorescent probe displaced, Replicate” value was 0.15.
Regarding `O=C(C=Cc1ccccc1)NC1CC2C(=O)NCc3cccc(c3)C(=O)NC(Cc3ccccc3)C(=O)NCCSSCCC(=O)N2C1` (stereo not drawn) [X D5 B5 F Acid 91], where the note is “Acid 91”, the “fraction fluorescent probe displaced, Screen” value is reported as -0.05 and the “fraction fluorescent probe displaced, Replicate” value is 0.07.
For `O=C(/C=C/c1ccccc1)N[C@H]1C[C@H]2C(=O)NCc3cccc(c3)C(=O)N[C@@H](Cc3c[nH]c4ccccc34)C(=O)NCCSSCCC(=O)N2C1` [X D5 B5 W Acid 91], in that order: 0.00268 and 0.09.
Take `O=C(NC1CC2C(=O)NC(Cc3ccccc3)C(=O)N3CCCC3C(=O)NCCSSCCC(=O)N2C1)c1ccc(Cl)s1` (stereo not drawn) [X D5 F B1 Acid 14] ([Mpa][ξPro(4-NHCO(5-Cl-2-thienyl))]FP-Cysteamide; disulfide 1-C; configuration not given here): for the setting “Acid 14”, the “fraction fluorescent probe displaced, Screen” value stood at 0.28 and the “fraction fluorescent probe displaced, Replicate” value came out at 0.0465.
